These results are taken from publication PMC5559341 (ACS chemical neuroscience, 2017).

Holding throughout (assay): TEVC electrophysiology, Xenopus oocytes
Holding throughout (assay type): cell-based

The target in experiment [1] is GluN1/2B (Rattus norvegicus, UniProt P35439+Q00960).
Experiment [2] has as its target GluN1/2C (Rattus norvegicus, UniProt P35439+Q00961).
In experiment [3] the target is GluN1/2A (Rattus norvegicus, UniProt P35439).
The target of experiment [4] is GluN1/2D (Rattus norvegicus, UniProt P35439+Q62645).

The EC50 is the concentration giving half of the maximal effect. Consider `CCCCC(=O)NC[C@@H](N)C(=O)O` [13a, pentanamido analogue 13a], for which the EC50 in experiment [1] is greater than 300 µM; in experiment [2], 206 µM; in experiment [3], greater than 300 µM; in experiment [4], greater than 300 µM.

Turning to `N[C@@H](COCc1ccccc1)C(=O)O` [8b], the EC50 in experiment [1], in experiment [2] and in experiment [4] was greater than 300 µM throughout.

Consider `CCCCC(=O)NC[C@H](N)C(=O)O` [13b], for which the EC50 in experiment [2] and in experiment [4] was greater than 300 µM throughout.

For the compound `N[C@H](CSCc1ccccc1)C(=O)O` [11b, S-benzylated D-cysteine], the EC50 in experiment [2] and in experiment [4] was greater than 300 µM each time.

For `CCCCSC[C@@H](N)C(=O)O` [10b, S-Butyl D-cysteine], the 50% effective concentration (EC50) in experiment [1], in experiment [2] and in experiment [4] was greater than 300 µM each time.

As to `CCCCSC[C@H](N)C(=O)O` [10a, S-Butyl L-cysteine], the half-maximal effective concentration (EC50) in experiment [2] and in experiment [4] was greater than 300 µM in each case.

As to `N[C@@H](CSCc1ccccc1)C(=O)O` [11a, S-benzyl substituted L-cysteine], the EC50 was 87 µM in experiment [2] and greater than 300 µM in experiment [4].
